BindingDB's records for doi:10.1016/j.ejmech.2010.03.048 (2010)

Target: Sigma non-opioid intracellular receptor 1 (Cavia porcellus, UniProt Q60492)
Experiment: Displacement of [3H](+)-pentazocine from sigma 1 receptor in guinea pig brain membrane

Chain of Sigma non-opioid intracellular receptor 1 (Q60492 whole entry): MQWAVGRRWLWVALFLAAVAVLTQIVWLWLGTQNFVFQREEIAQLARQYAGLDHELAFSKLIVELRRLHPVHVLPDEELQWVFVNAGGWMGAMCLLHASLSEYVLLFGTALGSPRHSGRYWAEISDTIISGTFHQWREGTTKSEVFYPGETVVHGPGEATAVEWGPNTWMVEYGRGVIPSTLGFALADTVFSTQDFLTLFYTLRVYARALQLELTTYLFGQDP

Ki | Structure (SMILES)
10 nM | OCC[C@@H]1Cc2ccccc2C2(CCN(Cc3ccccc3)CC2)O1 [(S)-2-(1'-benzylspiro[isochroman-1,4'-piperidine]-3-yl)ethanol]
48 nM | OCC[C@H]1Cc2ccccc2C2(CCN(Cc3ccccc3)CC2)O1 [(R)-2-(1'-benzylspiro[isochroman-1,4'-piperidine]-3-yl)ethanol]
68 nM | OCC[C@H]1Cc2ccccc2C2(CCN(CCCc3ccccc3)CC2)O1 [(R)-2-(1'-(3-phenylpropyl)spiro[isochroman-1,4'-piperidine]-3-yl)ethanol]
9 nM | OCC[C@H]1Cc2ccccc2C2(CCN(CC3CCCCC3)CC2)O1 [(R)-2-(1'-(cyclohexylmethyl)spiro[isochroman-1,4'-piperidine]-3-yl)ethanol]
